Laboratory results reported in PubChem BioAssay AID2060613 (Molecular Pharmacology Branch, DTP, NCI, 2025).
Values joined by “and” are separate entries in the source; they are usually repeats but may differ in a detail not shown here. Identical values can stand only once.

Tested on: 233499-124-R-J3-PDC complex spheroid viability
Assay: Anticancer human tumor 233499-124-R-J3-PDC patient-derived colon adenocarcinoma cell line growth inhibition [CLK]
Details: for viability, T/C: stronger effect = lower value; active = viability on the fitted dose curve at most 10% of control; inactive = the rest
In short: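 Multi-cell-type spheroids combined patient-derived tumor cells with HUVEC endothelial cells and human mesenchymal stem cells. Paired agents were dosed in half-log steps down from about clinical Cmax, or from 10 microM where Cmax was unknown.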

[1] = curve of first compound, second compound 0.0316 µM
[2] = curve of first compound, second compound 0.1 µM
[3] = curve of first compound, second compound 0.316 µM
[4] = curve of first compound, second compound 1 µM
[5] = curve of first compound, second compound 3.16 µM
[6] = curve of first compound, second compound 10 µM
[7] = second compound 0.0316 µM, first compound 0.0316 µM
[8] = second compound 0.0316 µM, first compound 0.1 µM
[9] = second compound 0.0316 µM, first compound 0.316 µM
[10] = second compound 0.0316 µM, first compound 1 µM
[11] = second compound 0.0316 µM, first compound 3.16 µM
[12] = second compound 0.0316 µM, first compound 10 µM
[13] = second compound 0.1 µM, first compound 0.0316 µM
[14] = second compound 0.1 µM, first compound 0.1 µM
[15] = second compound 0.1 µM, first compound 0.316 µM
[16] = second compound 0.1 µM, first compound 1 µM
[17] = second compound 0.1 µM, first compound 3.16 µM
[18] = second compound 0.1 µM, first compound 10 µM
[19] = second compound 0.316 µM, first compound 0.0316 µM
[20] = second compound 0.316 µM, first compound 0.1 µM
[21] = second compound 0.316 µM, first compound 0.316 µM
[22] = second compound 0.316 µM, first compound 1 µM
[23] = second compound 0.316 µM, first compound 3.16 µM
[24] = second compound 0.316 µM, first compound 10 µM
[25] = second compound 1 µM, first compound 0.0316 µM
[26] = second compound 1 µM, first compound 0.1 µM
[27] = second compound 1 µM, first compound 0.316 µM
[28] = second compound 1 µM, first compound 1 µM
[29] = second compound 1 µM, first compound 3.16 µM
[30] = second compound 1 µM, first compound 10 µM
[31] = second compound 3.16 µM, first compound 0.0316 µM
[32] = second compound 3.16 µM, first compound 0.1 µM
[33] = second compound 3.16 µM, first compound 0.316 µM
[34] = second compound 3.16 µM, first compound 1 µM
[35] = second compound 3.16 µM, first compound 3.16 µM
[36] = second compound 3.16 µM, first compound 10 µM
[37] = second compound 10 µM, first compound 0.0316 µM
[38] = second compound 10 µM, first compound 0.1 µM
[39] = second compound 10 µM, first compound 0.316 µM
[40] = second compound 10 µM, first compound 1 µM
[41] = second compound 10 µM, first compound 3.16 µM
[42] = second compound 10 µM, first compound 10 µM
[43] = second compound 0.0316 µM, first compound 0.00316 µM
[44] = second compound 0.0316 µM, first compound 0.01 µM
[45] = second compound 0.1 µM, first compound 0.00316 µM
[46] = second compound 0.1 µM, first compound 0.01 µM
[47] = second compound 0.316 µM, first compound 0.00316 µM
[48] = second compound 0.316 µM, first compound 0.01 µM
[49] = second compound 1 µM, first compound 0.00316 µM
[50] = second compound 1 µM, first compound 0.01 µM
[51] = second compound 3.16 µM, first compound 0.00316 µM
[52] = second compound 3.16 µM, first compound 0.01 µM
[53] = second compound 10 µM, first compound 0.00316 µM
[54] = second compound 10 µM, first compound 0.01 µM
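Also: spheroids exposed to the drug combinations for seven days.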
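For viability, T/C in this document: percent viability relative to DMSO vehicle control wells taken as 100%.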

CC1COCCN1c1cc(C2(S(C)(=N)=O)CC2)nc(-c2ccnc3[nH]ccc23)n1 (stereo not given) + CNC(=O)c1ccc(Nc2nc(OC3CCCC3)c3c(-c4ccc5nc(C)oc5c4)c[nH]c3n2)c(OC)c1
inactive: viability, T/C [7] 90% | viability, T/C [8] 103% | viability, T/C [9] 77.8% | viability, T/C [10] 87.5% | viability, T/C [11] 89.7% | viability, T/C [12] 46.2% | viability, T/C [13] 76.6% | viability, T/C [14] 76.9% | viability, T/C [15] 71.6% | viability, T/C [16] 70.1% | viability, T/C [17] 70.5% | viability, T/C [18] 47.2% | viability, T/C [19] 81.3% | viability, T/C [20] 88.1% | viability, T/C [21] 74% | viability, T/C [22] 76.6% | viability, T/C [23] 68% | viability, T/C [24] 40.3% | viability, T/C [25] 86.4% | viability, T/C [26] 59.8% | viability, T/C [27] 61.8% | viability, T/C [28] 74.1% | viability, T/C [29] 61.7% | viability, T/C [30] 36.8% | viability, T/C [31] 72.8% | viability, T/C [32] 77.6% | viability, T/C [33] 82.5% | viability, T/C [34] 70.3% | viability, T/C [35] 50.8% | viability, T/C [36] 30.5% | viability, T/C [37] 69.5% | viability, T/C [38] 69.3% | viability, T/C [39] 69.2% | viability, T/C [40] 63.8% | viability, T/C [41] 59.6% | viability, T/C [42] 29%
3240 nM: IC50 [5]
5520 nM: IC50 [4]
8710 nM: IC50 [2]
6660 nM: IC50 [3]
4410 nM: IC50 [6]
9040 nM: IC50 [1]

CCc1c2c(nc3ccc(O)cc13)-c1cc3c(c(=O)n1C2)COC(=O)[C@]3(O)CC + CNC(=O)c1ccc(Nc2nc(OC3CCCC3)c3c(-c4ccc5nc(C)oc5c4)c[nH]c3n2)c(OC)c1
34.5 nM: IC50 [2]
114 nM: IC50 [1]
active: viability, T/C [33] 6.64% | viability, T/C [34] 5.12% | viability, T/C [40] 2.94%
inactive: viability, T/C [43] 76% | viability, T/C [44] 56.8% | viability, T/C [7] 55% | viability, T/C [8] 61.8% | viability, T/C [9] 34.7% | viability, T/C [10] 18.3% | viability, T/C [45] 57.5% | viability, T/C [46] 53.8% | viability, T/C [13] 47.3% | viability, T/C [14] 46.6% | viability, T/C [15] 31.1% | viability, T/C [16] 11.6% | viability, T/C [47] 65.5% | viability, T/C [48] 50% | viability, T/C [19] 38.4% | viability, T/C [20] 45.1% | viability, T/C [21] 19.6% | viability, T/C [22] 11.3% | viability, T/C [49] 63% | viability, T/C [50] 49.8% | viability, T/C [25] 40.2% | viability, T/C [26] 53.6% | viability, T/C [27] 12.3% | viability, T/C [28] 5.66% | viability, T/C [51] 50.9% | viability, T/C [52] 48.6% | viability, T/C [31] 25.6% | viability, T/C [32] 18% | viability, T/C [53] 51% | viability, T/C [54] 32.3% | viability, T/C [37] 35.1% | viability, T/C [38] 17.8% | viability, T/C [39] 8.94%
15.8 nM: IC50 [3]
4.68 nM: IC50 [5]
15.2 nM: IC50 [4]
< 3.16 nM: IC50 [6]

C#Cc1c(F)ccc2cc(O)cc(-c3ncc4c(N5CC6CCC(C5)N6)nc(OCC56CCCN5CC(F)C6)nc4c3F)c12 (stereo not given)
> 10000 nM: IC50 (curve of compound)
inactive: viability, T/C (compound 0.0316 µM) 86.1% and 87.7% | viability, T/C (compound 0.1 µM) 102% and 104% | viability, T/C (compound 0.316 µM) 95.6% and 105% | viability, T/C (compound 1 µM) 92% and 87.8% | viability, T/C (compound 3.16 µM) 89.5% and 79% | viability, T/C (compound 10 µM) 76.6% and 78.5%

CCN1CCN(Cc2ccc(Nc3ncc(F)c(-c4cc(F)c5nc(C)n(C(C)C)c5c4)n3)nc2)CC1 + CN1CCN(c2cc(C(=O)Nc3cc4cc(-c5cnn(C)c5)ccc4cn3)ccn2)CC1
inactive: viability, T/C [43] 96.4% | viability, T/C [44] 87.2% | viability, T/C [7] 81.5% | viability, T/C [8] 107% | viability, T/C [9] 97.9% | viability, T/C [10] 97.4% | viability, T/C [45] 91.5% | viability, T/C [46] 114% | viability, T/C [13] 83.1% | viability, T/C [14] 90.5% | viability, T/C [15] 93.1% | viability, T/C [16] 93.1% | viability, T/C [47] 92.7% | viability, T/C [48] 91.6% | viability, T/C [19] 96.2% | viability, T/C [20] 87.5% | viability, T/C [21] 86.9% | viability, T/C [22] 77.9%
> 1000 nM: IC50 [1] | IC50 [2] | IC50 [3]
< 3.16 nM: IC50 [4] | IC50 [5] | IC50 [6]
active: viability, T/C [49] 6.1% | viability, T/C [50] 0.82% | viability, T/C [25] 1.32% | viability, T/C [26] 4.68% | viability, T/C [27] 6.35% | viability, T/C [28] 2.16% | viability, T/C [51] 0.75% | viability, T/C [52] 0.56% | viability, T/C [31] 0.71% | viability, T/C [32] 0.69% | viability, T/C [33] 1.11% | viability, T/C [34] 1.38% | viability, T/C [53] 0.5% | viability, T/C [54] 0.56% | viability, T/C [37] 1.04% | viability, T/C [38] 0.52% | viability, T/C [39] 0.59% | viability, T/C [40] 0.61%

COc1cccc2c1C(=O)c1c(O)c3c(c(O)c1C2=O)CC(O)(C(=O)CO)CC3OC1CC(N)C(O)C(C)O1 (stereo not given) + CNC(=O)c1ccc(Nc2nc(OC3CCCC3)c3c(-c4ccc5nc(C)oc5c4)c[nH]c3n2)c(OC)c1
142 nM: IC50 [4]
active: viability, T/C [12] 6.81% | viability, T/C [18] 2.92% | viability, T/C [23] 4.56% | viability, T/C [24] 1.31% | viability, T/C [28] 1.71% | viability, T/C [29] 1.27% | viability, T/C [30] 0.38% | viability, T/C [34] 1.95% | viability, T/C [35] 0.8% | viability, T/C [36] 0.35% | viability, T/C [40] 0.74% | viability, T/C [41] 0.74% | viability, T/C [42] 0.32%
inactive: viability, T/C [7] 92% | viability, T/C [8] 85.1% | viability, T/C [9] 38.5% | viability, T/C [10] 38.5% | viability, T/C [11] 13.5% | viability, T/C [13] 71.3% | viability, T/C [14] 71.7% | viability, T/C [15] 40.7% | viability, T/C [16] 34.2% | viability, T/C [17] 17% | viability, T/C [19] 61.7% | viability, T/C [20] 62.1% | viability, T/C [21] 33.8% | viability, T/C [22] 13.8% | viability, T/C [25] 51.1% | viability, T/C [26] 75.6% | viability, T/C [27] 19.3% | viability, T/C [31] 55% | viability, T/C [32] 53% | viability, T/C [33] 27.4% | viability, T/C [37] 56.1% | viability, T/C [38] 48.5% | viability, T/C [39] 11.7%
286 nM: IC50 [2]
115 nM: IC50 [5]
155 nM: IC50 [3]
79.9 nM: IC50 [6]
336 nM: IC50 [1]
